This passage reports MIC results from ChEMBL document CHEMBL1212909, “Lactones and quinones from the tubers of Sinningia aggregata” (2010).

By MIC is commonly meant the smallest concentration in the dilution series that meets the test's criterion for growth inhibition. Higher therefore signals a less susceptible organism.

The subject of experiment [1] is Candida dubliniensis. Briefly: Antifungal activity against Candida dubliniensis ATCC 778157 by broth microdilution method. In general terms: Dilution methods test growth across graded concentrations, often in twofold steps.
For experiment [2], the system named is Candida dubliniensis. Briefly: Antifungal activity against Candida dubliniensis ATCC 777 by broth microdilution method.

For `COc1ccc2c(c1)C(=O)c1cc(C)ccc1C2=O`, the MIC with Candida dubliniensis [1] and against Candida dubliniensis [2] was more than 100 µg/mL throughout.

Turning to `Cc1ccc2c(c1)C(=O)c1cc(O)ccc1C2=O`, the MIC in the experiment on Candida dubliniensis [1] and in the experiment on Candida dubliniensis [2] was more than 100 µg/mL each time.

Consider `Cc1ccc2c(c1)C(=O)c1ccccc1C2=O` [TECTOQUINONE], for which the MIC against Candida dubliniensis [1] and against Candida dubliniensis [2] was more than 100 µg/mL in each case.
